Reference: patent US11149031B2, “Substituted N-(3-fluoropropyl)-pyrrolidine compounds, processes for their preparation and therapeutic uses thereof” (SANOFI, priority 2016, dated 2021)

How the values were obtained:
[1] = tested on: MCF7 cells expressing mutant estrogen receptor Tyr 537 Ser; test: Test B: cell proliferation/viability assay (CellTiter-Glo) on MCF7 Tyr 537 Ser mutant; assay type: cell-based; conditions: Homo sapiens, MCF7, 168 h, MCF7 cells expressing ER Tyr 537 Ser mutant, 7 days of compound exposure, read-out: proliferation MCF7 Y537S IC50
From the text: (§1) Test B: Cell Proliferation/Viability Assay on MCF7 (Breast Tumor Cells) WT and Mutants Cell Lines
(§2) Test B involves measuring the in vitro proliferation activity of the compounds of the invention by analyzing the viability of the tumor cells.
(§3) The measurements of the viability were made using a breast cancer cell viability assay as described hereunder.
(§4) MCF7 cells expressing (and dependent) on mutants estrogen receptor Tyr 537 Ser or Asp 538 Gly were generated by transfection of MCF7 parental cells (ATCC) with expression vectors coding for different mutants of estrogen receptor Tyr 537 Ser or Asp 538 Gly. The cells were first selected by antibiotic (related to vector expression) and then selected for their growth dependence on estrogen receptor based on their ability to grow in vitro in absence of estradiol (parental cell line die in absence of estradiol).
(§5) MCF7 cells (ATCC) or MCF7 cells expressing (and dependent) on mutants estrogen receptor Tyr 537 Ser or Asp 538 Gly were seeded in 384 wells microplate at concentration of >999 cells/30 μL per well in red phenol free MEM medium containing 5% charcoal dextran striped FBS. The following day, 9 points serial 1:5 dilution of each compound were added to the cells in 20 μL at final concentrations ranging from 3-0.000001 μM. After 7 days of compound exposure, 50 μL of CellTiter-Glo (promega) was added to the cells and relative luminescence arbitrary units (RLUs) were determined in luminescence plate reader (Envision device). CellTiter-Glo was added to 50 μL medium without cells to determine the background signal.
(§6) The percent of viability of each sample was determined as follows: (RLU sample−RLU background/RLU untreated−RLU background)*100=% viability.

[2] = tested on: MCF7 cells expressing mutant estrogen receptor Asp 538 Gly; test: Test B: cell proliferation/viability assay (CellTiter-Glo) on MCF7 Asp 538 Gly mutant; assay type: cell-based; conditions: Homo sapiens, MCF7, 168 h, MCF7 cells expressing ER Asp 538 Gly mutant, 7 days of compound exposure, read-out: proliferation MCF7 D538G IC50
From the text: as §1, §2, §3, §4, §5, §6

[3] = tested on: MCF7 cells (breast tumor cells) WT; test: Test B: cell proliferation/viability assay (CellTiter-Glo) on MCF7 WT; assay type: cell-based; conditions: Homo sapiens, MCF7, 168 h, 7 days of compound exposure
Method: as §1, §2
The measurements of the viability were made using a breast cancer cell viability assay as described hereunder. […]
as §5, §6

[4] = molecular target: His6-ERα298-554 WT (ERα ligand-binding domain) (Homo sapiens (Human), UniProt P03372); test: Test A: biochemical antagonist activity, LanthaScreen TR-FRET ERα coactivator assay, WT; conditions: protocol with 3 nM estradiol; read-out: Antagonism WT IC50
Procedure, shortened: (§7)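 Compounds were added to receptor LBD (0.5 nM), terbium-labelled His6 antibody (0.5 nM), PGC1a coactivator peptide (250 nM) and estradiol at 3 nM or 10 nM. After incubating overnight at room temperature, the 520:495 nm ratio gave IC50 values by four-parameter logistic regression.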

ERα in MCF7 cells = ERα in MCF7 cells (Homo sapiens (Human), UniProt P03372); test: Test C: estrogen receptor degradation activity, ERα in cell western assay in MCF7 cells; assay type: cell-based; conditions: for DC50: 4 hours post compound addition, ERα in cell western, read-out: Degradation IC50; for % Degradation at 3 μM: 4 hours, relative to fulvestrant
Procedure, shortened: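 In-cell western, MCF7, 4 h compound exposure, 3–0.000018 μM final, 9 points, 1:5 steps. Formalin/Triton fix, anti-ER rabbit mAb overnight cold, Alexa 488 secondary plus 2 μM Syto-64. Green intensity = ERα, red = DNA; no-primary wells as background.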

[5] = molecular target: His6-ERα298-554 Y537S mutant (ERα ligand-binding domain) (Homo sapiens (Human), UniProt P03372, Y537S); test: Test A: biochemical antagonist activity, LanthaScreen TR-FRET ERα coactivator assay, Y537S mutant; conditions: protocol with 3 nM estradiol; read-out: Antagonism Y537S IC50
Procedure, shortened: as §7

[6] = molecular target: His6-ERα298-554 D538G mutant (ERα ligand-binding domain) (Homo sapiens (Human), UniProt P03372, D538G); test: Test A: biochemical antagonist activity, LanthaScreen TR-FRET ERα coactivator assay, D538G mutant; conditions: protocol with 3 nM estradiol; read-out: Antagonism D538G IC50
Procedure, shortened: as §7

Chain of His6-ERα298-554 D538G mutant (ERα ligand-binding domain) (P03372 298-554 D538G): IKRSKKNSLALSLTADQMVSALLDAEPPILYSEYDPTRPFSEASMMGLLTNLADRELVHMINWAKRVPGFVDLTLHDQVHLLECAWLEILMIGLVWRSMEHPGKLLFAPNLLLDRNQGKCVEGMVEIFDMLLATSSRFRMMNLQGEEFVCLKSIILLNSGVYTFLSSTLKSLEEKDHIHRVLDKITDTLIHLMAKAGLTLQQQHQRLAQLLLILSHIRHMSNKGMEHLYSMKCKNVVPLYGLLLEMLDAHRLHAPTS
Chain of ERα in MCF7 cells (P03372 whole entry): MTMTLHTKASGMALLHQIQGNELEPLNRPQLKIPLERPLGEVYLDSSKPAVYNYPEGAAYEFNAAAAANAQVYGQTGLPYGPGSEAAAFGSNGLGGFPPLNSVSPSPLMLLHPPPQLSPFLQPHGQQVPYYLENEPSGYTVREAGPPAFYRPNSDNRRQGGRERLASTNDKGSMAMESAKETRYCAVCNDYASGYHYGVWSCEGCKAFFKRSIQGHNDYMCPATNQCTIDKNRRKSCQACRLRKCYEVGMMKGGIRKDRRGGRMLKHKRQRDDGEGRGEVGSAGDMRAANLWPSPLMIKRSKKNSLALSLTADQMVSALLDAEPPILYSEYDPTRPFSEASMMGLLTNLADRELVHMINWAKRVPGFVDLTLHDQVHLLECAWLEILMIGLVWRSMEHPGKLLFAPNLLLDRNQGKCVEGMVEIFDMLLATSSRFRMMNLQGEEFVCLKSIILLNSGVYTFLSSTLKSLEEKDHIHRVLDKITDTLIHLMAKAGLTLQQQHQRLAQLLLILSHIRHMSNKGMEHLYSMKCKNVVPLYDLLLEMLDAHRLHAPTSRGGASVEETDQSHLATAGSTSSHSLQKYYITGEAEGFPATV
Chain of His6-ERα298-554 WT (ERα ligand-binding domain) (P03372 298-554): as the sequence (P03372 298-554 D538G) above, with G241D counted along it
Chain of His6-ERα298-554 Y537S mutant (ERα ligand-binding domain) (P03372 298-554 Y537S): as the sequence (P03372 298-554 D538G) above, with Y240S, G241D counted along it

Structure (SMILES) | IC50 [1] [nM] | IC50 [2] [nM] | IC50 [3] [nM] | IC50 [4] [nM] | DC50 (ERα in MCF7 cells) [nM] | % Degradation at 3 μM (ERα in MCF7 cells) [%] | IC50 [5] [nM] | IC50 [6] [nM]
Oc1ccc2c(c1)CCC(c1ccc(F)cc1Cl)=C2c1ccc(O[C@H]2CCN(CCCF)C2)cc1 [Example 13, 6-(2-chloro-4-fluoro-phenyl)-5-[4-[(3S)-1-(3-fluoropropyl)pyrrolidin-3-yl]oxyphenyl]-7,8-dihydronaphthalen-2-ol] | 8 | 3 | 0.4 |  |  |  |  | 
Oc1ccc2c(c1)OCCC(c1ccc3[nH]ccc3c1)=C2c1ccc(O[C@H]2CCN(CCCF)C2)cc1 [Example 93, 5-[4-[(3S)-1-(3-fluoropropyl)pyrrolidin-3-yl]oxyphenyl]-4-(1H-indol-5-yl)-2,3-dihydro-1-benzoxepin-8-ol] |  |  |  | 8 | 0.4 | 87 | 26 | 59
Cc1cc2c(cc1O)OCCC(c1cccc(Cl)c1C)=C2c1ccc(O[C@H]2CCN(CCCF)C2)cc1 [Example 135, 4-(3-chloro-2-methyl-phenyl)-5-[4-[(3S)-1-(3-fluoropropyl)pyrrolidin-3-yl]oxyphenyl]-7-methyl-2,3-dihydro-1-benzoxepin-8-ol] |  |  |  | 21 | 3 | 87 | 352 | 591
Cc1c(Cl)cccc1C1=C(c2ccc(O[C@H]3CCN(CCCF)C3)cc2)c2ccc(O)c(C)c2OCC1 [Example 112, 4-(3-chloro-2-methyl-phenyl)-5-[4-[(3S)-1-(3-fluoropropyl)pyrrolidin-3-yl]oxyphenyl]-9-methyl-2,3-dihydro-1-benzoxepin-8-ol] |  |  |  | 91 | 4 | 87 | 543 | 838
O=S1(=O)CCC(c2ccc(F)cc2Cl)=C(c2ccc(O[C@H]3CCN(CCCF)C3)cc2)c2ccc(O)cc21 [Example 229, 4-(2-chloro-4-fluoro-phenyl)-5-[4-[(3S)-1-(3-fluoropropyl)pyrrolidin-3-yl]oxyphenyl]-1,1-dioxo-2,3-dihydro-1λ^6-benzothiepin-8-ol] |  |  |  | 12 | 0.2 | 89 | 34 | 85
Cc1cc(C2=C(c3ccc(O[C@H]4CCN(CCCF)C4)cc3)c3ccc(O)cc3S(=O)(=O)CC2)ccc1Cl [Example 236, 4-(4-chloro-3-methyl-phenyl)-5-[4-[(3S)-1-(3-fluoropropyl)pyrrolidin-3-yl]oxyphenyl]-1,1-dioxo-2,3-dihydro-1λ^6-benzothiepin-8-ol] |  |  |  | 8 | 0.3 | 91 | 29 | 54
Oc1cccc(C2=C(c3ccc(O[C@H]4CCN(CCCF)C4)cc3)c3ccc(O)cc3OCC2)c1 [Example 91, 5-[4-[(3S)-1-(3-fluoropropyl)pyrrolidin-3-yl]oxyphenyl]-4-(3-hydroxyphenyl)-2,3-dihydro-1-benzoxepin-8-ol] |  |  |  | 2 | 0.4 | 91 | 6 | 10
Cc1c(F)cccc1C1=C(c2ccc(O[C@H]3CCN(CCCF)C3)cc2)c2ccc(O)cc2OCC1 [Example 126, 4-(3-fluoro-2-methyl-phenyl)-5-[4-[(3S)-1-(3-fluoropropyl)pyrrolidin-3-yl]oxyphenyl]-2,3-dihydro-1-benzoxepin-8-ol] |  |  |  | 5 | 0.3 | 91 | 55 | 94
Cc1c(Cl)cccc1C1=C(c2ccc(O[C@H]3CCN(CCCF)C3)cc2)c2ccc(O)c(Cl)c2OCC1 [Example 109, 9-chloro-4-(3-chloro-2-methyl-phenyl)-5-[4-[(3S)-1-(3-fluoropropyl)pyrrolidin-3-yl]oxyphenyl]-2,3-dihydro-1-benzoxepin-8-ol] |  |  |  | 29 | 1 | 90 | 150 | 215
Cc1c(Cl)cccc1C1=C(c2ccc(O[C@H]3CCN(CCCF)C3)cc2)c2ccc(O)cc2SCC1 [Example 163, 4-(3-chloro-2-methyl-phenyl)-5-[4-[(3S)-1-(3-fluoropropyl)pyrrolidin-3-yl]oxyphenyl]-2,3-dihydro-1-benzothiepin-8-ol] |  |  |  | 5 | 0.6 | 94 | 19 | 24
Oc1ccc2c(c1Cl)OCCC(c1ccc3c(c1)CCN3)=C2c1ccc(O[C@H]2CCN(CCCF)C2)cc1 [Example 115, 9-chloro-5-[4-[(3S)-1-(3-fluoropropyl)pyrrolidin-3-yl]oxyphenyl]-4-indolin-5-yl-2,3-dihydro-1-benzoxepin-8-ol] |  |  |  | 88 | 6 | 77 | 200 | 322
Oc1ccc2c(c1Cl)OCCC(c1ccc3c(c1)NCC3)=C2c1ccc(O[C@H]2CCN(CCCF)C2)cc1 [Example 125, 9-chloro-5-[4-[(3S)-1-(3-fluoropropyl)pyrrolidin-3-yl]oxyphenyl]-4-indolin-6-yl-2,3-dihydro-1-benzoxepin-8-ol] |  |  |  | 190 | 4 | 84 | 945 | 1340
Oc1cccc(C2=C(c3ccc(O[C@H]4CCN(CCCF)C4)cc3)c3ccc(O)cc3SCC2)c1 [Example 158, 5-[4-[(3S)-1-(3-fluoropropyl)pyrrolidin-3-yl]oxyphenyl]-4-(3-hydroxyphenyl)-2,3-dihydro-1-benzothiepin-8-ol] |  |  |  | 1 | 0.2 | 88 | 3 | 4
Cc1cc(F)ccc1C1=C(c2ccc(O[C@H]3CCN(CCCF)C3)cc2)c2ccc(O)cc2S(=O)(=O)CC1 [Example 234, 4-(4-fluoro-2-methyl-phenyl)-5-[4-[(3S)-1-(3-fluoropropyl)pyrrolidin-3-yl]oxyphenyl]-1,1-dioxo-2,3-dihydro-1λ^6-benzothiepin-8-ol] |  |  |  | 9 | 0.2 | 90 | 33 | 59
Oc1ccc2c(c1)C(c1ccc(O[C@H]3CCN(CCCF)C3)cc1)=C(c1ccc(Cl)cc1F)CCS2 [Example 181, 4-(4-chloro-2-fluoro-phenyl)-5-[4-[(3S)-1-(3-fluoropropyl)pyrrolidin-3-yl]oxyphenyl]-2,3-dihydro-1-benzothiepin-7-ol] |  |  |  | 25 | 3 | 83 | 54 | 135
Oc1ccc2c(c1)SCCC(c1cccc(F)c1Cl)=C2c1ccc(O[C@H]2CCN(CCCF)C2)cc1 [Example 168, 4-(2-chloro-3-fluoro-phenyl)-5-[4-[(3S)-1-(3-fluoropropyl)pyrrolidin-3-yl]oxyphenyl]-2,3-dihydro-1-benzothiepin-8-ol] |  |  |  | 3 | 0.7 | 86 | 9 | 14
Oc1ccc2c(c1)SCC(c1ccc3c(c1)CCN3)=C2c1ccc(O[C@H]2CCN(CCCF)C2)cc1 [Example 20, 4-[4-[(3S)-1-(3-fluoropropyl)pyrrolidin-3-yl]oxyphenyl]-3-indolin-5-yl-2H-thiochromen-7-ol] |  |  |  | 15 | 3 | 86 | 21 | 46
